{"source": "patent US20240308960A1", "about": "(Sumitomo Pharma Co., Ltd., priority 2021, published 2024)"}
{"target": "T1, Human orexin receptor type 2 (Homo sapiens, UniProt O43614)", "T1 sequence (O43614 1-444)": "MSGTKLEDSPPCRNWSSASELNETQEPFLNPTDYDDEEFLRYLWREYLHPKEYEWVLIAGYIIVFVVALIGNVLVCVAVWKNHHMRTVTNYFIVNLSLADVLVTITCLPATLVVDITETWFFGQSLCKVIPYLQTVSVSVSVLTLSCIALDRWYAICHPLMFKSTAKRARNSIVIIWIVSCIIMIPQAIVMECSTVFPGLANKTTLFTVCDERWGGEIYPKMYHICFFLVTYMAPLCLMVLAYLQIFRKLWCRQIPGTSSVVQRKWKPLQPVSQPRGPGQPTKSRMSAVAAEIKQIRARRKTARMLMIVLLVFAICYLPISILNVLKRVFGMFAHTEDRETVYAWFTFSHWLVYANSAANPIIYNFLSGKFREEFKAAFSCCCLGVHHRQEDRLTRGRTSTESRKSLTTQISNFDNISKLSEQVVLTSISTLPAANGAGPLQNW", "assay": "Test Example 1: agonist activity for orexin receptor type 2 (aequorin luminescence, intracellular calcium mobilization)", "conditions": "compound 10 μm; CHO cells transiently expressing human orexin receptor type 2 and apoaequorin; relative percentage of luminescence for the luminescence (100%) of Orexin A (100 μM)", "units": {"Agonist Activity (%)": "%"}, "protocol": "Human orexin receptor type 2 and apoaequorin were transiently expressed in CHO cells, and the agonist activity was evaluated based on intracellular calcium mobilization with ligand stimulation. The CHO cells transiently-expressed human orexin receptor type 2 and apoaequorin were seeded on a 384-well plate by 2,000 cells/well, and then incubated for 16-22 hours. After the plate was returned to room temperature, Coelenterazine hcp (final concentration: 1 μM) was added to the plate, and the plate was allowed to stand at room temperature for 2 hours. And then, Orexin A or each test compound was added to the plate, and the luminescence of the cells was measured with FDSS7000 (Hamamatsu Photonics K. K.), wherein Orexin A and each test compound were dissolved in DMSO (final concentration: 0.1%), and diluted with a buffer (Hanks, 20 mM HEPES, 0.1% BSA). The agonist activity of each test compound for orexin receptor type 2 was calculated as relative percentage of luminescence for the luminescence (100%) of Orexin A (100 μM)."}
{"smiles": "CC(C)N1CCC(Oc2cccc(Cl)c2NC(=O)N2CCC(C)(c3noc(C4CC4)n3)CC2)C1", "note": "(racemic) [Example 110, Rac-N-(2-chloro-6-{[1-(propan-2-yl)pyrrolidin-3-yl]oxy}phenyl)-4-(5-cyclopropyl-1,2,4-oxadiazol-3-yl)-4-methylpiperidine-1-carboxamide]", "Agonist Activity (%)": 148}
{"smiles": "CC(C)N1CCN(c2cccc(Cl)c2NC(=O)N2CCC(C)(c3noc([C@H]4C[C@H]4C)n3)CC2)CC1", "note": "[Example 117, N-{2-chloro-6-[4-(propan-2-yl)piperazin-1-yl]phenyl}-4-methyl-4-{5-[(1S,2R)-2-methylcyclopropyl]-1,2,4-oxadiazol-3-yl}piperidine-1-carboxamide]", "Agonist Activity (%)": 158}
{"smiles": "CC(C)N1CCN(c2ccccc2NC(=O)N2CCC(C)(c3nc(-c4ccccc4)no3)CC2)CC1", "note": "[Example 12, 4-methyl-4-(3-phenyl-1,2,4-oxadiazol-5-yl)-N-{2-[4-(propan-2-yl)piperazin-1-yl]phenyl}piperidine-1-carboxamide]", "Agonist Activity (%)": 123}
{"smiles": "CC(C)N1CCN(c2cccc(Cl)c2NC(=O)N2CCC(C)(c3noc(C4CC4)c3Cl)CC2)CC1", "note": "[Example 103, 4-(4-chloro-5-cyclopropyl-1,2-oxazol-3-yl)-N-{2-chloro-6-[4-(propan-2-yl)piperazin-1-yl]phenyl}-4-methylpiperidine-1-carboxamide]", "Agonist Activity (%)": 178}
{"smiles": "CC(C)N1CC=C(c2cccc(F)c2NC(=O)N2CCC(C)(c3noc(C4CC4)n3)CC2)CC1", "note": "[Example 44, 4-(5-cyclopropyl-1,2,4-oxadiazol-3-yl)-N-{2-fluoro-6-[1-(propan-2-yl)-1,2,3,6-tetrahydropyridin-4-yl]phenyl}-4-methylpiperidine-1-carboxamide]", "Agonist Activity (%)": 143}
{"smiles": "Cc1ccc(C2CCN(C(=O)Nc3ccccc3N3CCN(C(C)C)CC3)CC2)cc1", "note": "[Example 121]", "Agonist Activity (%)": 130}
{"smiles": "CC(C)c1ccc(-c2cccc(F)c2NC(=O)N2CCC(C)(c3noc(C4CC4)n3)CC2)cc1", "note": "[Example 65, 4-(5-cyclopropyl-1,2,4-oxadiazol-3-yl)-N-[3-fluoro-4′-(propan-2-yl) [1,1′-biphenyl]-2-yl]-4-methylpiperidine-1-carboxamide]", "Agonist Activity (%)": 93}
{"smiles": "Cc1ccc(C2CCN(C(=O)Nc3c(C)cccc3N3CCN(C(C)C)CC3)CC2)cc1", "note": "[Example 17, 4-(4-methylphenyl)-N-{2-methyl-6-[4-(propan-2-yl)piperazin-1-yl]phenyl}piperidine-1-carboxamide]", "Agonist Activity (%)": 133}
{"smiles": "Cc1ccc(C2CCN(C(=O)Nc3c(F)cccc3C3CCN(C(C)C)CC3)CC2)cc1", "note": "[Example 39, N-{2-fluoro-6-[1-(propan-2-yl)piperidin-4-yl]phenyl}-4-(4-methylphenyl)piperidine-1-carboxamide]", "Agonist Activity (%)": 106}
{"smiles": "CCN1CCCN(c2ccccc2NC(=O)N2CCC(c3ccc(C)cc3)CC2)CC1", "note": "[Example 153, N-[2-(4-ethyl-1,4-diazepan-1-yl)phenyl]-4-(4-methylphenyl)piperidine-1-carboxamide]", "Agonist Activity (%)": 54}
{"smiles": "COc1cccc(C2CCN(C(C)C)CC2)c1NC(=O)N1CCC(c2ccc(C)cc2)CC1", "note": "[Example 48, N-{2-methoxy-6-[1-(propan-2-yl)piperidin-4-yl]phenyl}-4-(4-methylphenyl)piperidine-1-carboxamide]", "Agonist Activity (%)": 146}
{"smiles": "Cc1ccc(C2CCN(C(=O)Nc3c(F)cccc3N3CCN(C(C)C)CC3)CC2C)cc1", "note": "(racemic) [Example 26, Rac-N-{2-fluoro-6-[4-(propan-2-yl)piperazin-1-yl]phenyl}-3-methyl-4-(4-methylphenyl)piperidine-1-carboxamide]", "Agonist Activity (%)": 63}
{"smiles": "Cc1ccc(C2CCN(C(=O)Nc3c(OC(C)C)cccc3C3CCN(C(C)C)CC3)CC2)cc1", "note": "[Example 129, 4-(4-methylphenyl)-N-{2-[(propan-2-yl)oxy]-6-[1-(propan-2-yl)piperidin-4-yl]phenyl}piperidine-1-carboxamide]", "Agonist Activity (%)": 138}
